The values below are quoted from earlier work in patent US20070071689A1, “Advantageous combination for inhalation of nacystelyn and bronchodilators” (GALEPHAR M/F, priority 2003, published 2007).

For series [1] the following is noted: administration via the inhalation route.
A further series deals with cystic fibrosis patients. The following applies: in comparison to placebo.
For series [2] the following is noted: in comparison to ACC.

In the case of `CC(=O)N[C@@H](CS)C(=O)O` [ACC, acetylcysteine], in series [1], the “bronchospasms (side effects)” value is “can be responsible for reflex bronchospasms”.
For L-Lysine N-Acetylcysteinate [NAL], in the series with cystic fibrosis patients, the “number and severity of lung exacerbations” value is “significantly decrease the number and severity of lung exacerbations”. In series [2], the active dose result was “active at lower doses than ACC”; the “mucolytic and antioxidant activity” value is “superior to the activity of ACC”.
